Assays:
HBV = assay: Dose-ranging study in the HBV transgenic mouse model; type: in vivo; settings: once-daily oral 1 to 100 mg/kg/day for 14 days
[1] = Plasma levels by LC-MS after oral Formula (IIa) (Example 2); type: in vivo, woodchuck (Marmota monax); settings: 15 and 30 mg/kg oral, approximately 2 hours post-dose
Experimental: Plasma levels of Formula (Ia) were evaluated at pretreatment (T0) and then bi-weekly throughout the study at approximately 2 hours post-dose. Woodchuck plasma was analyzed by LC-MS and quantified using isotopically enriched internal standards.

For `COC1[C@@H](OP(=O)(OC[C@H]2O[C@@H](n3cnc4c(N)ncnc43)C[C@H]2O)SCOC(=O)OC(C)C)[C@@H](CO)O[C@H]1n1ccc(=O)[nH]c1=O` (some centres unmarked) [Formula (IIa)], the “liver HBV DNA” value (HBV) was “significant reduction” and the “plasma exposure following oral administration” value [1] was “dose-dependent”.
